Measured values taken from patent US20240196899A1, “PESTICIDAL MIXTURES” (priority 2021, published 2024).
Like-named read-outs stand apart in the source and are kept apart here.

Key:
[1] = tested on: M. persicae; test: Insecticidal % control against M. persicae, Colby synergy; assay type: in vivo, Myzus persicae
Method: (§1) Colby's method is used to determine if synergy exists for a combination of active ingredients. According to Colby, the expected action (E) of active ingredients A+B is:
(§2) [formula] • where E=expected efficacy, A and B=the efficacy of two active ingredients A and B at a given dose.
(§3) When the percentage of control observed (O) for the combination is greater than the expected (E) percentage, there is a synergistic effect. The synergism ratio (R) is calculated as the ratio between the […].
(§4) The insecticidal compounds A (Novaluron) and B (mix partner) are formulated as equivalent suspension concentrates to eliminate the effects of differing formulation inerts on biological activity. Efficacy of the insecticidal compositions is evaluated with reference to a scale of 0% to 100% in comparison with untreated control plots. 0 means no damage and 100 means complete destruction of the harmful pests.
(§5) Likewise following experimentations were done on other mixtures of novaluron on various pests, the result of which are summarized in the below tables: […]

[2] = tested on: B. tabaci; test: Insecticidal % control against B. tabaci, Colby synergy; assay type: in vivo, Bemisia tabaci; details: Table 7, 72 hours after treatment
Method: as §1, §2, §3, §4, §5

[3] = tested on: S. frugiperda; test: Insecticidal % control against S. frugiperda, Colby synergy; assay type: in vivo, Spodoptera frugiperda; details: 120 hours after treatment
Method: as §1, §2, §3, §4, §5

[4] = tested on: T. urticae; test: Insecticidal % control against T. urticae, Colby synergy; assay type: in vivo, Tetranychus urticae
Method: as §1, §2, §3, §4, §5

[5] = tested on: Cotton Leafworm, S. littoralis; test: Insecticidal % control against Cotton Leafworm, S. littoralis, Colby synergy; assay type: in vivo, Spodoptera littoralis; details: 72 hours after treatment
Method: as §1, §2, §3, §4, §5

[6] = tested on: F. occidentalis; test: Insecticidal % control against F. occidentalis, Colby synergy; assay type: in vivo, Frankliniella occidentalis
Method: as §1, §2, §3, §4, §5

[7] = tested on: H. halys; test: Insecticidal % control against H. halys, Colby synergy; assay type: in vivo, Halyomorpha halys; details: Table 20 B; 144 hours after treatment; 5 ppm
Method: as §1, §2, §3, §4, §5

[8] = tested on: A. gossypii; test: Insecticidal % control against A. gossypii, Colby synergy; assay type: in vivo, Aphis gossypii; details: 96 hours after treatment
Method: as §1, §2, §3, §4, §5

[9] = tested on: T. absoluta; test: Insecticidal % control against T. absoluta, Colby synergy; assay type: in vivo, Tuta absoluta; details: 72 hours after treatment
Method: as §1, §2, §3, §4, §5

[10] = tested on: Spodoptera littoralis larvae; test: Larval weight gain (LWG) of S. littoralis on treated castor bean leaves; assay type: in vivo; details: Table 3
Method: (§6) The experiments were conducted by applying commercially available compositions of Novaluron (Rimon®) and methoxyfenozide (Runner®) alone or together. The compositions were diluted with water to the stated concentration of the active compound.
(§7) The following active ingredients and their mixtures were evaluated: • Novaluron: 0.01 mg a.i./liter • Methoxyfenozide: 0.01 mg a.i./liter • Novaluron+Methoxyfenozide 0.01 mg a.i./liter+0.01 mg a.i./liter
(§8) To evaluate the insecticidal control of novaluron and methoxyfenozide alone and in a binary mixture, castor bean leaves were treated with the above listed treatments. The treated leaves were exposed for 4-day feeding to 3rd-instar Spodoptera littoralis and the larvae were exposed for additional 4 days on untreated leaves. Larval mortality was determined at day 4 and 8. The treatments were composed of 3-5 replicates of 10 larvae each.
Larval weight gain (LWG) was also measured in order to determine the effectiveness of the mixture of novaluron and methoxyfenozide when compared to the solo application of novaluron and methoxyfenozide.
Table 3 below summarizes the larval weight gain (LWG) (compared to the control), that was determined 4 days after treatment for the mixture of novaluron and methoxyfenozide.

[11] = tested on: Spodoptera littoralis larvae; test: Larval mortality of S. littoralis fed on treated castor bean leaves (tank mix novaluron + methoxyfenozide), Colby synergy; assay type: in vivo; details: Spodoptera littoralis, in Ricinus communis, Table 1, 0.01 mg a.i./L of each active
Method: as §1, §2, §3
A representative experiment was conducted to evaluate the insecticidal control of novaluron, a compound II, namely methoxyfenozide as well as a mixture of novaluron and methoxyfenozide against Spodoptera littoralis larvae.
as §6, §7, §8

With COP(=O)(NC(C)=O)SC (centres unmarked) [Acephate] the “Observed % control (O)” value ([1]; Table 17 A, 72 hours after treatment, 2 ppm) was 66% and the “Observed % control (O)” value ([1]; Table 17 B, 7 days after treatment, 2 ppm) was 75.0%.
For C[C@]1(COC(=O)C2CC2)[C@@H]2C[C@H](O)[C@@]3(C)Oc4cc(-c5cccnc5)oc(=O)c4[C@H](O)[C@@H]3[C@@]2(C)CC[C@@H]1OC(=O)C1CC1 [Afidopyropen], the “Observed % control (O)” value ([2]; 7 ppm) was 35.1% and the “Observed % control (O)” value ([2]; 35 ppm) was 49.8%.
CN(C(=O)c1ccccc1)c1cccc(C(=O)Nc2c(Br)cc(C(F)(C(F)(F)F)C(F)(F)F)cc2C(F)(F)F)c1F [Broflanilide] was tested, and the “Observed % control (O)” value ([3]; Table 9, 0.001 ppm) was 10% and the “Observed % control (O)” value ([3]; Table 9, 0.01 ppm) was 20%.
CCOCn1c(-c2ccc(Cl)cc2)c(C#N)c(Br)c1C(F)(F)F [Chlorfenapyr] was tested, and the “Observed % control (O)” value ([4]; Table 14 A, 48 hours after treatment, 2.4 ppm) was 64%, the “Observed % control (O)” value ([4]; Table 14 A, 48 hours after treatment, 24 ppm) was 79% and the “Observed % control (O)” value ([4]; Table 14 B, 72 hours after treatment, 2.4 ppm) was 78%. For the same molecule, the “Observed % control (O)” value ([4]; Table 14 B, 72 hours after treatment, 24 ppm) was 86%, the “Observed % control (O)” value ([4]; Table 14 C, 7 days after treatment, 2.4 ppm) was 86% and the “Observed % control (O)” value ([4]; Table 14 C, 7 days after treatment, 24 ppm) was 94%.
In the case of CN/C(=N/CC1CCOC1)N[N+](=O)[O-] (centres unmarked) [Dinotefuran], the “Observed % control (O)” value ([5]; Table 16, 0.04 ppm) is reported as 25%.
N#Cc1nn(-c2c(Cl)cc(C(F)(F)F)cc2Cl)c(N)c1[S+]([O-])C(F)(F)F (centres unmarked) [Fipronil] was tested, and the “Observed % control (O)” value ([5]; Table 20 A, 0.002 ppm) was 0%, the “Observed % control (O)” value ([5]; Table 20 A, 0.02 ppm) was 5% and the “Observed % control (O)” value ([6]; Table 20 C, 48 hours after treatment, 1 ppm) was 66.0%. The “Observed % control (O)” value ([6]; Table 20 D, 72 hours after treatment, 1 ppm) was 70.0%, the “Observed % control (O)” value ([6]; Table 20 D, 72 hours after treatment, 100 ppm) was 90.0% and the “Observed % control (O)” value ([6]; Table 20 E, 7 days after treatment, 1 ppm) was 84.0%. The “Observed % control (O)” value [7] was 87.5%.
For O=C(N=c1ccccn1Cc1ccc(Cl)nc1)C(F)(F)F [Flupyrimin], the “Observed % control (O)” value ([5]; Table 12, 12 ppm) was 0%.
For CCN1OCC(NC(=O)c2ccc(C3=NOC(c4cc(Cl)c(F)c(Cl)c4)(C(F)(F)F)C3)cc2C)C1=O (centres unmarked) [Isocycloseram], the “Observed % control (O)” value ([5]; Table 8, 12 ppm) was 12.5%.
CCOC(=O)CC(SP(=S)(OC)OC)C(=O)OCC (centres unmarked) [Malathion] was tested, and the “Observed % control (O)” value ([8]; Table 18 A, 100 ppm) was 81.7%, the “Observed % control (O)” value ([6]; Table 18 B, 72 hours after treatment, 5 ppm) was 6.0% and the “Observed % control (O)” value ([6]; Table 18 B, 72 hours after treatment, 500 ppm) was 80.0%.
With COc1cccc(C(=O)NN(C(=O)c2cc(C)cc(C)c2)C(C)(C)C)c1C [Methoxyfenozide] the “Observed % control (O)” value ([9]; Table 2, 3 ppm) was 16.7%, the “LWG % rel. Control” value ([10]; 4 days after treatment, 0.01 mg a.i./L of each active) was 93 % rel. Control and the “effect on the weight gain of the Spodoptera littoralis larvae” value ([10]; applied alone) was “neither novaluron nor methoxyfenozide alone have any effect on the weight gain”. It also gave a mortality at 0.01 µg/mL ([11]; 96 h, 3rd-instar larvae, 4-day feeding on treated leaves, day 4, read-out: Larval mortality, % (observed) 4 d) of 4.1% and a mortality at 0.01 µg/mL ([11]; 4 days on treated then 4 days on untreated leaves, day 8, read-out: Larval mortality, % (observed) 8 d) of 12%.
With CN(C(=O)c1cc(-c2cnn(-c3c(Cl)cc(C(F)(C(F)(F)F)C(F)(F)F)cc3Cl)c2)cnc1Cl)C1CC1 [Nicofluprole] the “Observed % control (O)” value ([5]; Table 21, 12 ppm) was 0%.
In the case of Cc1cc(C)c(C2=C(OC(=O)CC(C)(C)C)C3(CCCC3)OC2=O)c(C)c1 [Spiromesifen], the “Observed % control (O)” value ([8]; Table 19 A, 500 ppm) is reported as 75.3% and the “Observed % control (O)” value ([1]; Table 19 B, 7 days after treatment, 5 ppm) is reported as 58.3%.
CCOC(=O)OC1=C(c2cc(C)ccc2C)C(=O)N[C@]12CC[C@@H](OC)CC2 [Spirotetramat] was tested, and the “Observed % control (O)” value ([4]; Table 6 C, 48 hours after treatment, 600 ppm) was 8.0%, the “Observed % control (O)” value ([4]; Table 6 D, 72 hours after treatment, 6 ppm) was 6.0% and the “Observed % control (O)” value ([4]; Table 6 D, 72 hours after treatment, 600 ppm) was 14.0%. For the same molecule, the “Observed % control (O)” value ([4]; Table 6 E, 7 days after treatment, 600 ppm) was 16.2%, the “Observed % control (O)” value ([1]; Table 6 A, 72 hours after treatment, 100 ppm) was 68% and the “Observed % control (O)” value ([1]; Table 6 B, 7 days after treatment, 100 ppm) was 85.7%.
With CC(c1ccc(C(F)(F)F)nc1)S(C)(=O)=NC#N (centres unmarked) [Sulfoxaflor] the “Observed % control (O)” value ([1]; Table 15 A, 48 hours after treatment, 0.5 ppm) was 64%, the “Observed % control (O)” value ([1]; Table 15 B, 72 hours after treatment, 0.5 ppm) was 70% and the “Observed % control (O)” value ([1]; Table 15 B, 72 hours after treatment, 2.5 ppm) was 82%.
In the case of CNC(=O)c1cc(C#N)cc(C)c1NC(=O)c1cc(Cn2nnc(C(F)(F)F)n2)nn1-c1ncccc1Cl [Tetraniliprole], the “Observed % control (O)” value ([3]; Table 10 A, 0.001 ppm) is reported as 0%, the “Observed % control (O)” value ([3]; Table 10 A, 0.01 ppm) is reported as 0% and the “Observed % control (O)” value ([5]; Table 10 B, 0.004 ppm) is reported as 7.5%. For the same molecule, the “Observed % control (O)” value ([5]; Table 10 B, 0.02 ppm) was 17.5% and the “Observed % control (O)” value ([5]; Table 10 B, 0.1 ppm) was 95%.
In the case of CCN(C(=O)CCSCCC(F)(F)F)c1cn(-c2cccnc2)nc1Cl [Tyclopyrazoflor], the “Observed % control (O)” value ([5]; Table 13, 12 ppm) is reported as 12.5%.
Dicloromezotiaz was tested, and the “Observed % control (O)” value ([5]; Table 11, 12 ppm) was 0%.
For Spinetoram, the “Observed % control (O)” value ([9]; Table 5 C, 1 ppm) was 50%, the “Observed % control (O)” value ([9]; Table 5 C, 3 ppm) was 33.3% and the “Observed % control (O)” value ([9]; Table 5 C, 10 ppm) was 83.3%. For the same molecule, the “Observed % control (O)” value ([3]; Table 5 A, 0.01 ppm) was 20%, the “Observed % control (O)” value ([3]; Table 5 A, 0.025 ppm) was 30% and the “Observed % control (O)” value ([3]; Table 5 A, 0.05 ppm) was 45%. For the same molecule, the “Observed % control (O)” value ([5]; Table 5 B, 0.004 ppm) was 0%, the “Observed % control (O)” value ([5]; Table 5 B, 0.1 ppm) was 80% and the “Observed % control (O)” value ([6]; Table 5 D, 48 hours after treatment, 3.5 ppm) was 18.0%. The “Observed % control (O)” value ([6]; Table 5 D, 48 hours after treatment, 350 ppm) was 78.0%, the “Observed % control (O)” value ([6]; Table 5 E, 72 hours after treatment, 3.5 ppm) was 22.0% and the “Observed % control (O)” value ([6]; Table 5 E, 72 hours after treatment, 350 ppm) was 82.0%. The “Observed % control (O)” value ([6]; Table 5 F, 7 days after treatment, 3.5 ppm) was 30.0% and the “Observed % control (O)” value ([6]; Table 5 F, 7 days after treatment, 350 ppm) was 82.0%.
With Spinosad the “Observed % control (O)” value ([6]; Table 4 A, 48 hours after treatment, 5.3 ppm) was 2.0%, the “Observed % control (O)” value ([6]; Table 4 B, 72 hours after treatment, 5.3 ppm) was 4.0% and the “Observed % control (O)” value ([6]; Table 4 B, 72 hours after treatment, 530 ppm) was 32.0%. The “Observed % control (O)” value ([6]; Table 4 C, 7 days after treatment, 5.3 ppm) was 32.0% and the “Observed % control (O)” value ([6]; Table 4 C, 7 days after treatment, 530 ppm) was 60.0%.
